Measurements: patent publication US20260049105A1, “SELECTIVE MC4R LIGAND FOR TREATING OBESITY AND COGNITIVE LOSS” (ARIZONA BOARD OF REGENTS ON BEHALF OF THE UNIVERSITY OF …, priority 2022, published 2026)
pEC50, pIC50: −log10 of the molar value.

Columns and labels:
[1] = target: T1, hMC4R (Homo sapiens, UniProt P32245); experiment: Adenylate cyclase (cAMP) assay in transfected HEK293 cells; assay type: cell-based; conditions: HEK293, 0.05 h; hM4CR; percentage of cAMP produced at 10 μM in relation to MT-II; read-out: Act%
T1 construct: expressed in transfected cells; host or cells: HEK293
Experimental: The cells were seeded on 96 well plates 48 hours before the assay, (100,000 cells/well). For the assay, the medium was removed and cells were rinsed with 1 mL of MEM buffer (GIBCO) or with Earle's balanced salt solution (EBSS, GIBCO). An aliquot (0.4 mL) of Earle's balanced salt solution was placed in each well along with isobutylmethylxanthine (IBMX; 5 μL; 0.5 mM) for 1 minute at 37° C. Varying concentrations of melanotropins (0.1 mL) were added and the cells incubated for 3 minutes at 37° C. The reaction was stopped by aspirating the buffer and adding ice-cold Tris/EDTA buffer to each well (0.15 mL). The 96 well plates were covered and placed on ice. After dislodging the cells, the plates were placed in a boiling water bath for 15 minutes. The cell lysate was then centrifuged for 10 minutes (4000 rpm), and 50 μL of the supernatant was aliquoted into perkinElmer glass fiber filter plate. cAMP content was measured by competitive binding assay in addition to 50 μL H^3 cAMP and 100 μL PKA. Then the system was placed on ice for 2 hours and then vacuum and filtered. 100 μL of the OptiPhase Supermix scintillation fluid was added to the plate. The plates stayed for 8 hours and then read by MicroBeta radiation plate reader. IC50 and EC50 values represent the mean of duplicate experiments performed in triplicate. […] NA indicates 0% cAMP accumulation observed at 10 μM. The peptides were tested over a range of concentrations from 10^-10 to 10^-5 M.

[2] = target: T1, hMC4R; experiment: as above; assay type: cell-based; conditions: hM4CR; 50% maximal intracellular cAMP accumulation, N=4
[3] = target: T1, hMC4R; experiment: Competitive receptor binding assay, whole HEK293 cells, 125I-NDP-α-MSH; conditions: hM4CR; for inhibition at 10 µM: 40 min, percentage of [125I]NDP-α-MSH displacement at 10 μM, read-out: BE%
Experimental: (§1) Competition binding experiments were performed on whole cells. The transfected HEK293 cell line with hMC4Rs were seeded on 96 well plates, 48 hours before the assay, 100,000 cells/well. For the assay, the medium was removed and cells were washed twice with a freshly prepared binding buffer containing 100% minimum essential medium with Earle's salt (MEM, GIBCO), 25 mM HEPES (pH 7.4), 0.2% bovine serum albumin, 1 mM 1,10-phenanthroline, 0.5 mg/L leupeptin, and 200 mg/L bacitracin. […] The medium was subsequently removed and each well was washed twice with the assay buffer. The cells are lysed by the addition of 250 μL of 0.1 NaOH and 250 μL of 1% Triton X-100. […] Data were analyzed using Graphpad Prism 6.0 (Graphpad Software, San Diego, CA).
IC50 and EC50 values represent the mean of duplicate experiments performed in triplicate. IC50 and EC50 estimates and their associated standard errors were determined by fitting the data using nonlinear least-squares analysis, with the help of Graphpad Prism 6.0 (Graphpad Software, San Diego, CA). […]

[4] = target: T2, hMC5R (Homo sapiens, UniProt P33032); experiment: as above; conditions: 40 min; hM5CR; percentage of NDP-α-MSH displacement at 10 μM; read-out: BE %
T2 construct: expressed in transfected cells; host or cells: HEK293
Experimental: [The procedure below names another target; the source lists this target under the same test.] as §1
(§2) IC50 and EC50 values represent the mean of duplicate experiments performed in triplicate. IC50 and EC50 estimates and their associated standard errors were determined by fitting the data using nonlinear least-squares analysis, with the help of Graphpad Prism 6.0 (Graphpad Software, San Diego, CA).
(§3) NA indicates 0% cAMP accumulation observed at 10 μM. The peptides were tested over a range of concentrations from 10^-10 to 10^-5 M.

[5] = target: T3, hMC1R (Homo sapiens, UniProt Q01726); experiment: as above; conditions: 40 min; hM1CR; percentage of NDP-α-MSH displacement at 10 μM; read-out: BE %
T3 construct: expressed in transfected cells; host or cells: HEK293
Experimental: [The procedure below names another target; the source lists this target under the same test.] (§4) Competition binding experiments were performed on whole cells. The transfected HEK293 cell line with hMC4Rs were seeded on 96 well plates, 48 hours before the assay, 100,000 cells/well. For the assay, the medium was removed and cells were washed twice with a freshly prepared binding buffer containing 100% minimum essential medium with Earle's salt (MEM, GIBCO), 25 mM HEPES (pH 7.4), 0.2% bovine serum albumin, 1 mM 1,10-phenanthroline, 0.5 mg/L leupeptin, and 200 mg/L bacitracin. […] The medium was subsequently removed and each well was washed twice with the assay buffer. The cells are lysed by the addition of 250 μL of 0.1 NaOH and 250 μL of 1% Triton X-100. The lysed cell was transferred to the 12×75 mm glass tubes and the radioactivity was measured by Wallac 1470 WIZARD Gamma Counter. Data were analyzed using Graphpad Prism 6.0 (Graphpad Software, San Diego, CA).
as §2, §3

[6] = target: T4, hMC3R (Homo sapiens, UniProt P41968); experiment: as above; conditions: 40 min; hM3CR; percentage of NDP-α-MSH displacement at 10 μM; read-out: BE %
T4 construct: expressed in transfected cells; host or cells: HEK293
Experimental: [The procedure below names another target; the source lists this target under the same test.] as §4, §2, §3

[7] = target: T3, hMC1R; experiment: Adenylate cyclase (cAMP) assay in transfected HEK293 cells; assay type: cell-based; conditions: HEK293, 0.05 h; hM1CR; cAMP at 10 μM in relation to MT-II; read-out: Act %
Experimental: (§5) HEK293 cells transfected with human melanocortin receptors were grown to confluence in MEM medium (GIBCO) containing 10% fetal bovine serum, 100 units/mL penicillin and streptomycin, and 1 mM sodium pyruvate. The cells were seeded on 96 well plates 48 hours before the assay, (100,000 cells/well). For the assay, the medium was removed and cells were rinsed with 1 mL of MEM buffer (GIBCO) or with Earle's balanced salt solution (EBSS, GIBCO). An aliquot (0.4 mL) of Earle's balanced salt solution was placed in each well along with isobutylmethylxanthine (IBMX; 5 μL; 0.5 mM) for 1 minute at 37° C. Varying concentrations of melanotropins (0.1 mL) were added and the cells incubated for 3 minutes at 37° C. The reaction was stopped by aspirating the buffer and adding ice-cold Tris/EDTA buffer to each well (0.15 mL). The 96 well plates were covered and placed on ice. After dislodging the cells, the plates were placed in a boiling water bath for 15 minutes. The cell lysate was then centrifuged for 10 minutes (4000 rpm), and 50 μL of the supernatant was aliquoted into perkinElmer glass fiber filter plate. cAMP content was measured by competitive binding assay in addition to 50 μL H^3 cAMP and 100 μL PKA. Then the system was placed on ice for 2 hours and then vacuum and filtered. 100 μL of the OptiPhase Supermix scintillation fluid was added to the plate. The plates stayed for 8 hours and then read by MicroBeta radiation plate reader.
as §2, §3

[8] = target: T4, hMC3R; experiment: as above; assay type: cell-based; conditions: hM3CR; for Emax at 10 µM: HEK293, 0.05 h, cAMP at 10 μM in relation to MT-II, read-out: Act %
Experimental: as §5, §2, §3

[9] = target: T2, hMC5R; experiment: as above; assay type: cell-based; conditions: hM5CR; for Emax at 10 µM: HEK293, 0.05 h, cAMP at 10 μM in relation to MT-II, read-out: Act %
Experimental: as §5, §2, §3

T4 sequence (P41968 whole entry): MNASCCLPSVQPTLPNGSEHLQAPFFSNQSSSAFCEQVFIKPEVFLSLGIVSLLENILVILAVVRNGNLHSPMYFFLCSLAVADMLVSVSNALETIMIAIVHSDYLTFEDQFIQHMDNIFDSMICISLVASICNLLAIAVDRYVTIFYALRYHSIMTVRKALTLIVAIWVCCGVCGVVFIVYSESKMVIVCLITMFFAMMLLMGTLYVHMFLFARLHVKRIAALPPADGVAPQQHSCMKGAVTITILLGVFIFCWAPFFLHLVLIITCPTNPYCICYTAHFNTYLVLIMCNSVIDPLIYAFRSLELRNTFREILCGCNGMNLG
T1 sequence (P32245 whole entry): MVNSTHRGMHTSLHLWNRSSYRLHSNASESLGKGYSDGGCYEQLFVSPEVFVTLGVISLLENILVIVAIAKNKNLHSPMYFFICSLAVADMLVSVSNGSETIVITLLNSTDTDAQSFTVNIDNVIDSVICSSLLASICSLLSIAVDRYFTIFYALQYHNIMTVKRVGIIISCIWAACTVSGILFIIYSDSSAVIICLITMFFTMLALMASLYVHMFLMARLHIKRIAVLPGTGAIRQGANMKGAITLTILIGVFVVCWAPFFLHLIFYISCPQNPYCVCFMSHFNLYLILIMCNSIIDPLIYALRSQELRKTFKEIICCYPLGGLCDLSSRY
T2 sequence (P33032 whole entry): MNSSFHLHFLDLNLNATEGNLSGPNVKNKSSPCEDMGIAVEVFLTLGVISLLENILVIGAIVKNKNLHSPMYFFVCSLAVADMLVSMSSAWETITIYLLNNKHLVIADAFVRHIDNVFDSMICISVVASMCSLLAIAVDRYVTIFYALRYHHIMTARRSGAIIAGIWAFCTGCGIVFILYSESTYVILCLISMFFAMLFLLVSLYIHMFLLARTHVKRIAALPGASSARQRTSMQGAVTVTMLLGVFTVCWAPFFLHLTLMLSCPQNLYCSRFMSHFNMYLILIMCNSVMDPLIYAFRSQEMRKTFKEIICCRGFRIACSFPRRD
T3 sequence (Q01726 whole entry): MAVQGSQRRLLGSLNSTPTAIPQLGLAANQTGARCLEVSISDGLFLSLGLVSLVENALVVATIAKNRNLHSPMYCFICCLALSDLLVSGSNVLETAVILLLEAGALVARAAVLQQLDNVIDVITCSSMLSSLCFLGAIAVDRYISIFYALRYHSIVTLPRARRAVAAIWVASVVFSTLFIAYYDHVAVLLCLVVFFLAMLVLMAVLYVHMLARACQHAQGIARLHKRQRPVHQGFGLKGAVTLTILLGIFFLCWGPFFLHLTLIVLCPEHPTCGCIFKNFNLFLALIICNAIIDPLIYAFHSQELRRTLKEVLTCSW

**Q.** Which Emax at 10 µM [1] does the source give for `CC(=O)N[C@@H](CCCNC(=N)N)C(=O)N[C@H]1CC(=O)NCCCC[C@@H](C(N)=O)NC(=O)C[C@H](Cc2c[nH]c3ccccc23)NC(=O)[C@H](CCCNC(=N)N)NC(=O)[C@@H](Cc2ccccc2)NC(=O)[C@@H]2CCCCN2C1=O` [compound 1, Ac-Arg-cyclo[Asp-Pip-D-Phe-Arg-BTrp-Lys]-NH2] here?
**A.** 63%

**Q.** What about the pEC50 [2] of the same compound?
**A.** < 6.00

**Q.** And the inhibition at 10 µM [3]?
**A.** 0%

**Q.** What about the inhibition at 10 µM [4] of the same compound?
**A.** 66%

**Q.** And the inhibition at 10 µM [5]?
**A.** 100%

**Q.** What about the inhibition at 10 µM [6] of the same compound?
**A.** 60%

**Q.** What about the Emax at 10 µM [7] of the same compound?
**A.** 88%

**Q.** And the Emax at 10 µM [8]?
**A.** 88%

**Q.** What about the Emax at 10 µM [9] of the same compound?
**A.** 95%

**Q.** `CC(=O)N[C@@H](CCCNC(=N)N)C(=O)N[C@H]1CC(=O)NCCCC[C@@H](C(N)=O)NC(=O)[C@H](Cc2c[nH]c3ccccc23)NC(=O)C[C@H](CCCNC(=N)N)NC(=O)[C@@H](Cc2ccc(F)cc2)NC(=O)[C@@H]2CCCCN2C1=O` [compound 5, Ac-Arg-cyclo[Asp-Pip-D-Phe(4-F)-βArg-Trp-Lys]-NH2] was tested. Which Emax at 10 µM [1] did it give?
**A.** 84%

**Q.** And the pEC50 [2]?
**A.** < 6.00

**Q.** What about the inhibition at 10 µM [3] of the same compound?
**A.** 23%

**Q.** What about the pIC50 ([3]; concentration of peptide at 50% specific binding, N=4) of the same compound?
**A.** < 6.00

**Q.** What about the inhibition at 10 µM [4] of the same compound?
**A.** 0%

**Q.** And the inhibition at 10 µM [5]?
**A.** 100%

**Q.** And the inhibition at 10 µM [6]?
**A.** 100%

**Q.** What about the Emax at 10 µM [7] of the same compound?
**A.** 100%

**Q.** And the Emax at 10 µM [8]?
**A.** 59%

**Q.** What about the pEC50 ([8]; cAMP accumulation, N=4) of the same compound?
**A.** < 6.00

**Q.** What about the Emax at 10 µM [9] of the same compound?
**A.** 62%

**Q.** What about the pEC50 ([9]; cAMP accumulation, N=4) of the same compound?
**A.** < 6.00
